Literature values as cited in patent US20050175959A1, “System for the controlled delivery of an active material to a dental site” (Coll Partners Ltd., priority 2000, published 2005).

Settings: in vivo

## F [fluoride]
  acute lethal dose of fluoride (F): 33 mg F/Kg body weight
  chronic toxicity: 0.1 mg F/Kg
